Key:
[1] = Early dissolution experiments / dissolution attempted in various aqueous media; type: physicochemical
From the text: Gel formation is problematic from a formulation standpoint because it can result, for example, in irregular release of IPI-926 in vivo. Low rates of dissolution, and subsequent gel formation, persist even when small particle sizes (e.g., less than 150 micrometers) of IPI-926 are employed.
Without wishing to be bound to any particular theory, it was hypothesized that IPI-926 formed the solid agglomerate upon hydration. Accordingly, direct blend formulations were investigated.

[2] = tested on: human cell lines derived from patients with pancreatic cancer, medulloblastoma, lung cancer, multiple myeloma, acute lymphocytic leukemia, myelodysplatic …; details: described in WO 2008083252 and WO 2008083248; cited from earlier work
Hedgehog pathway = details: after single administration; cited from earlier work
[3] = tested on: preclinical in vivo models, such as medulloblastoma, small cell lung cancer, non-small cell lung cancer, skin cancer, head and neck cancer, and ovarian cancer; details: a number of preclinical in vivo models; cited from earlier work

## CC1=C2C[C@H]3[C@@H](CC[C@@H]4C[C@H](NS(C)(=O)=O)CC[C@@]43C)[C@@H]2CC[C@@]2(C1)O[C@@H]1C[C@H](C)CN[C@H]1[C@H]2C.Cl [IPI-926]
[1]
  behaviour when dissolution is attempted: gel, rather than dissolve
[2]
  in vitro growth of human cell lines: inhibit in vitro growth
Hedgehog pathway
  Hedgehog pathway inhibition in stromal cells: rapid and sustained Hedgehog pathway inhibition
[3]
  tumor growth inhibition: tumor growth inhibition
